Test results: ChEMBL document CHEMBL5678818, “Discovery of potent SOS1 inhibitors that block RAS activation via disruption of the RAS-SOS1 interaction” (Proc Natl Acad Sci U S A, 2019)

What was measured:
[1] = molecular target: T1, Dual specificity protein kinase TTK (Homo sapiens) (UniProt P33981); test: Inhibition of TTK (unknown origin) assessed as residual activity at 1000 nM by KINOMEscan analysis relative to control
T1 sequence (whole entry): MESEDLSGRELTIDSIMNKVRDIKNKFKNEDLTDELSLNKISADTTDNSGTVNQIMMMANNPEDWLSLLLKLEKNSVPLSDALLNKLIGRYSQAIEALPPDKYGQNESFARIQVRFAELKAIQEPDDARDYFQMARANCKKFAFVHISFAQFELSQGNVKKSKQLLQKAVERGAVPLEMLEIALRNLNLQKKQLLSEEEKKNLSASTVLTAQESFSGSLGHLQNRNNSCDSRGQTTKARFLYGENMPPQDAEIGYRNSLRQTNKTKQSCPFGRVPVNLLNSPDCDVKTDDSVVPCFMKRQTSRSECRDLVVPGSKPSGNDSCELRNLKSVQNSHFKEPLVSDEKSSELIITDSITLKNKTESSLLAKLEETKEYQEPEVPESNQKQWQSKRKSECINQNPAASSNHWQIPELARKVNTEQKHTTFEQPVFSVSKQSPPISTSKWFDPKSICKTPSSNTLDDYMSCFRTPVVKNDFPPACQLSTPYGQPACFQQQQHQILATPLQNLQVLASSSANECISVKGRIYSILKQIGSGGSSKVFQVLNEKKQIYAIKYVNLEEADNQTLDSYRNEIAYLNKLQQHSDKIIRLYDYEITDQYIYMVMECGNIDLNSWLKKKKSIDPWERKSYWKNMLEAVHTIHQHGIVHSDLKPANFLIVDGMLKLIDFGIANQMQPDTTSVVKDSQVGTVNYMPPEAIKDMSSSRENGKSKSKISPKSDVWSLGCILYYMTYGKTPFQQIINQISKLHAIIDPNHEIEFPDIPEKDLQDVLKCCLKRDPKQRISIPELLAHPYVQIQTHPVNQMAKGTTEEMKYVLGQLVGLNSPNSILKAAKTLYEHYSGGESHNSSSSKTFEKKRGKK

[2] = molecular target: T2, Son of sevenless homolog 1 (Homo sapiens) (UniProt Q07889); test: Stabilization of N-terminal His10-tagged wild-type recombinant human SOS1 catalytic domain (564 to 1049 residues) expressed in Escherichia coli assessed as change in melting temperature at 100 uM with heating from 25 to 85 degreeC by thermal shift assay
T2 sequence (whole entry): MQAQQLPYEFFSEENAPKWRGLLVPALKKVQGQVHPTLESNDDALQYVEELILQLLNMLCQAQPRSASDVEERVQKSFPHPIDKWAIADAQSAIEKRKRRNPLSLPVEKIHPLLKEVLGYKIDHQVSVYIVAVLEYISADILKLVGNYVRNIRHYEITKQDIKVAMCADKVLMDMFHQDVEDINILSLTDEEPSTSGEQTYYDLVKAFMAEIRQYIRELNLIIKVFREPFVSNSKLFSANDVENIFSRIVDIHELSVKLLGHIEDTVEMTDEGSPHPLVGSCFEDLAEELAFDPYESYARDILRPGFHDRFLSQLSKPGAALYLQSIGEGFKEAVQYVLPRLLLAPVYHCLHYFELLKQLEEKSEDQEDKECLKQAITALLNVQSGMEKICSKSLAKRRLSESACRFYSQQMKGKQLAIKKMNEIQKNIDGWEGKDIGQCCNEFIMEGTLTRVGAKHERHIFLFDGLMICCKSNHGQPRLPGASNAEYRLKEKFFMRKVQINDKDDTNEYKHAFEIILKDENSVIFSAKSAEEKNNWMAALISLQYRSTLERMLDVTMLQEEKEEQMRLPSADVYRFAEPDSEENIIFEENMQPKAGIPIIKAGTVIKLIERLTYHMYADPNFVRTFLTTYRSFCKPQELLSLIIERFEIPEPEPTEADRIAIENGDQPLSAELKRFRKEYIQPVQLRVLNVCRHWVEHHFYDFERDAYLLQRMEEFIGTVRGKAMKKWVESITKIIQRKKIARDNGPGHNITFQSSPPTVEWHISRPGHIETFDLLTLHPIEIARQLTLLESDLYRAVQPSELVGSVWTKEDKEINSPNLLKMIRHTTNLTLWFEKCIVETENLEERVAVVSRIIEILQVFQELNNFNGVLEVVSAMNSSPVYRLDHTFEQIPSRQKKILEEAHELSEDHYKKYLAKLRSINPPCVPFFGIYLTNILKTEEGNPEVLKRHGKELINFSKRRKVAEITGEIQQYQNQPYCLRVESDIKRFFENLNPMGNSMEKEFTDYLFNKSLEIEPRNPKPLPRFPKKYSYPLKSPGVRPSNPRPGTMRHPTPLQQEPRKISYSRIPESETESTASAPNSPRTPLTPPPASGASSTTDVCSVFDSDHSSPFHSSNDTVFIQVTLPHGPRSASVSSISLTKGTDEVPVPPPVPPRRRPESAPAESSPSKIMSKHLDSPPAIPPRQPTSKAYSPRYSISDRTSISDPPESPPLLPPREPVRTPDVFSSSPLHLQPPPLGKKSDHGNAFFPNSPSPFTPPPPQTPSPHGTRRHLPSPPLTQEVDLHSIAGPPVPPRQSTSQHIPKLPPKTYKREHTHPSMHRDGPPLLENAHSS

| Structure (SMILES) | Activity [1] | ΔTm [2] |
| --- | --- | --- |
| COc1cc2nc(C)nc(N[C@H](C)c3cccc(-c4cn[nH]c4)c3)c2cc1OC | 78% |  |
| COc1cc2ncnc(N[C@H](C)c3cccc4ccccc34)c2cc1OC | 95% | 2.5 °C |
| CNCc1ccccc1-c1csc([C@@H](C)Nc2nc(C)nc3cc(OC)c(OC)cc23)c1 [BAY-293] |  | 3.17 °C |
